In ChEMBL document CHEMBL5608191, “Structure-based discovery of novel piperidine-biphenyl-DAPY derivatives as non-nucleoside reverse transcriptase inhibitors featuring improved potency, safety, and selectivity: From piperazine-biphenyl-DAPYs to piperidine-biphenyl-DAPYs” (Eur J Med Chem, 2024):

Legend:
[1] = Selectivity index, ratio of CC50 for human MT4 cells to EC50 for wild-type HIV-1 IIIB infected in human MT4 cells; format: toxicity, cell-based; details: read-out: Ratio CC50/EC50
[2] = target: Human immunodeficiency virus type 1 reverse transcriptase (Human immunodeficiency virus 1, UniProt Q72547); experiment: Inhibition of recombinant wild-type HIV-1 reverse transcriptase incubated for 40 mins by fluorescence based assay
[3] = Cytotoxicity against human MT4 cells assessed as reduction in cell viability incubated for 5 days by MTT assay; format: toxicity, cell-based; details: time 5 day
[4] = tested on: Human immunodeficiency virus 1; experiment: Antiviral activity against wild-type HIV-1 IIIB infected in human MT4 cells assessed as protection against virus-induced cytopathic effect incubated for 5 days by MTT assay; format: functional, organism-based; details: Human immunodeficiency virus 1, IIIB, MT4, 120 h
[5] = tested on: Human immunodeficiency virus 1; experiment: Antiviral activity against HIV-1 harboring RT K103N mutant infected in human MT4 cells assessed as protection against virus-induced cytopathic effect incubated for 5 days by MTT assay; format: functional, organism-based; details: Human immunodeficiency virus 1, MT4, 120 h
[6] = tested on: Human immunodeficiency virus 1; experiment: Antiviral activity against HIV-1 harboring RT Y188L mutant infected in human MT4 cells assessed as protection against virus-induced cytopathic effect incubated for 5 days by MTT assay; format: functional, organism-based; details: Human immunodeficiency virus 1, MT4, 120 h
[7] = tested on: Human immunodeficiency virus 1; experiment: Antiviral activity against HIV-1 harboring RT L100I mutant infected in human MT4 cells assessed as protection against virus-induced cytopathic effect incubated for 5 days by MTT assay; format: functional, organism-based; details: Human immunodeficiency virus 1, MT4, 120 h
[8] = tested on: Human immunodeficiency virus 1; experiment: Antiviral activity against HIV-1 harboring RT E138K mutant infected in human MT4 cells assessed as protection against virus-induced cytopathic effect incubated for 5 days by MTT assay; format: functional, organism-based; details: Human immunodeficiency virus 1, MT4, 120 h
[9] = tested on: Human immunodeficiency virus 1; experiment: Antiviral activity against HIV-1 harboring RT Y181C mutant infected in human MT4 cells assessed as protection against virus-induced cytopathic effect incubated for 5 days by MTT assay; format: functional, organism-based; details: Human immunodeficiency virus 1, MT4, 120 h

Structure (SMILES) | selectivity ratio [1] | IC50 [2] | CC50 at 120 h [3] | EC50 [4] | EC50 [5] | EC50 [6] | EC50 [7] | EC50 [8] | EC50 [9]
CCOC(=O)c1cnc(NC2CCN(Cc3ccc(OC(F)(F)F)cc3)CC2)nc1Oc1c(C)cc(-c2ccc(C#N)cc2)cc1C | 923 | 2.04 µM | 175 µM | 0.189 µM | – | – | – | – | –
CCOC(=O)c1cnc(NC2CCN(Cc3ccc([N+](=O)[O-])cc3)CC2)nc1Oc1c(C)cc(-c2ccc(C#N)cc2)cc1C | 4390 | 0.41 µM | 164 µM | 0.037 µM | – | – | – | – | –
CCOC(=O)c1cnc(NC2CCN(Cc3ccccn3)CC2)nc1Oc1c(C)cc(-c2ccc(C#N)cc2)cc1C | > 12200 | 0.676 µM | > 222 µM | 0.018 µM | 0.043 µM | 0.313 µM | 0.128 µM | 0.164 µM | 0.118 µM
CCOC(=O)c1cnc(NC2CCN(Cc3ccc(Cl)cc3)CC2)nc1Oc1c(C)cc(-c2ccc(C#N)cc2)cc1C | 728 | 0.314 µM | 141 µM | 0.194 µM | – | – | – | – | –
CCOC(=O)c1cnc(NC2CCN(Cc3ccc(C)cc3)CC2)nc1Oc1c(C)cc(-c2ccc(C#N)cc2)cc1C | 5080 | 0.89 µM | 178 µM | 0.035 µM | – | – | – | – | –
CCOC(=O)c1cnc(NC2CCN(Cc3cccc(C(N)=O)c3)CC2)nc1Oc1c(C)cc(-c2ccc(C#N)cc2)cc1C | 757 | 0.669 µM | 11.5 µM | 0.015 µM | 0.044 µM | 0.342 µM | 0.066 µM | 0.068 µM | 0.076 µM
Cc1cn([C@H]2C[C@H](N=[N+]=[N-])[C@@H](CO)O2)c(=O)[nH]c1=O [ZIDOVUDINE] | > 223 | – | > 7.49 µM | 0.034 µM | 0.02 µM | 0.016 µM | 0.008 µM | 0.039 µM | 0.021 µM
CCOC(=O)c1cnc(NC2CCN(Cc3ccc(CO)cc3)CC2)nc1Oc1c(C)cc(-c2ccc(C#N)cc2)cc1C | 4740 | 0.514 µM | 192 µM | 0.04 µM | – | – | – | – | –
CCOC(=O)c1cnc(NC2CCN(Cc3ccccc3F)CC2)nc1Oc1c(C)cc(-c2ccc(C#N)cc2)cc1C | 4040 | 0.769 µM | 189 µM | 0.047 µM | – | – | – | – | –
CCOC(=O)c1cnc(NC2CCN(Cc3ccc(F)c(F)c3)CC2)nc1Oc1c(C)cc(-c2ccc(C#N)cc2)cc1C | 967 | 0.522 µM | 194 µM | 0.201 µM | – | – | – | – | –
CCOC(=O)c1cnc(NC2CCN(Cc3ccc(B(O)O)cc3)CC2)nc1Oc1c(C)cc(-c2ccc(C#N)cc2)cc1C | 439 | 1.29 µM | 20.9 µM | 0.048 µM | – | – | – | – | –
O=C1Nc2ccc(Cl)cc2[C@@](C#CC2CC2)(C(F)(F)F)O1 [EFAVIRENZ] | – | – | > 6.35 µM | – | 0.077 µM | – | 0.039 µM | 0.008 µM | 0.008 µM
CCOC(=O)c1cnc(NC2CCN(Cc3ccc(F)cc3F)CC2)nc1Oc1c(C)cc(-c2ccc(C#N)cc2)cc1C | 3280 | 0.634 µM | 176 µM | 0.054 µM | – | – | – | – | –
CCOC(=O)c1cnc(NC2CCN(Cc3cccnc3)CC2)nc1Oc1c(C)cc(-c2ccc(C#N)cc2)cc1C | > 6430 | 0.718 µM | > 222 µM | 0.035 µM | 0.053 µM | 0.431 µM | 0.272 µM | 0.07 µM | 0.099 µM
CCOC(=O)c1cnc(NC2CCN(Cc3ccc(F)cc3)CC2)nc1Oc1c(C)cc(-c2ccc(C#N)cc2)cc1C | 4180 | 0.582 µM | 185 µM | 0.044 µM | 0.115 µM | 0.79 µM | 0.257 µM | 0.154 µM | 0.158 µM
CCOC(=O)c1cnc(NC2CCN(Cc3cccc(C#N)c3)CC2)nc1Oc1c(C)cc(-c2ccc(C#N)cc2)cc1C | 4960 | 0.53 µM | 178 µM | 0.036 µM | 0.065 µM | 0.389 µM | 0.342 µM | 0.081 µM | 0.134 µM
CCOC(=O)c1cnc(NC2CCN(Cc3ccc(C(N)=O)cc3)CC2)nc1Oc1c(C)cc(-c2ccc(C#N)cc2)cc1C | 17400 | 0.596 µM | 191 µM | 0.011 µM | 0.017 µM | 0.094 µM | 0.045 µM | 0.05 µM | 0.048 µM
CCOC(=O)c1cnc(NC2CCN(Cc3ccc(/C=C/C(=O)OC)cc3)CC2)nc1Oc1c(C)cc(-c2ccc(C#N)cc2)cc1C | > 2450 | 0.535 µM | > 194 µM | 0.079 µM | – | – | – | – | –
CCOC(=O)c1cnc(NC2CCN(Cc3ccncc3)CC2)nc1Oc1c(C)cc(-c2ccc(C#N)cc2)cc1C | 3720 | 0.527 µM | 60 µM | 0.016 µM | 0.013 µM | 0.087 µM | 0.073 µM | 0.073 µM | 0.066 µM
CCOC(=O)c1cnc(N2CCN(Cc3cccc(C(N)=O)c3)CC2)nc1Oc1c(C)cc(-c2ccc(C#N)cc2)cc1C | 4 | – | 14.8 µM | 3.36 µM | – | – | – | – | –
CCOC(=O)c1cnc(NC2CCN(Cc3ccc(S(C)(=O)=O)cc3)CC2)nc1Oc1c(C)cc(-c2ccc(C#N)cc2)cc1C | 2290 | 0.598 µM | 27.9 µM | 0.013 µM | 0.013 µM | 0.067 µM | 0.057 µM | 0.105 µM | 0.051 µM
CCOC(=O)c1cnc(NC2CCN(Cc3ccc(S(=O)(=O)NC)cc3)CC2)nc1Oc1c(C)cc(-c2ccc(C#N)cc2)cc1C | 460 | 0.744 µM | 10.9 µM | 0.024 µM | 0.026 µM | 0.177 µM | 0.035 µM | 0.038 µM | 0.072 µM
CCOC(=O)c1cnc(NC2CCN(Cc3ccc(C#N)cc3)CC2)nc1Oc1c(C)cc(-c2ccc(C#N)cc2)cc1C | 604 | 0.782 µM | 131 µM | 0.217 µM | – | – | – | – | –
CCOC(=O)c1cnc(NC2CCN(Cc3cccc(C(=O)NC)c3)CC2)nc1Oc1c(C)cc(-c2ccc(C#N)cc2)cc1C | 556 | 0.686 µM | 20.4 µM | 0.037 µM | 0.048 µM | 0.246 µM | 0.074 µM | 0.051 µM | 0.067 µM
Cc1ccnc2c1NC(=O)c1cccnc1N2C1CC1 [NEVIRAPINE] | – | – | > 15 µM | – | – | > 10 µM | 2 µM | 0.153 µM | –
CCOC(=O)c1cnc(NC2CCN(Cc3ccc(C(F)(F)F)cc3)CC2)nc1Oc1c(C)cc(-c2ccc(C#N)cc2)cc1C | > 472 | 0.99 µM | > 199 µM | 0.421 µM | – | – | – | – | –
CCOC(=O)c1cnc(NC2CCN(Cc3ccccc3C#N)CC2)nc1Oc1c(C)cc(-c2ccc(C#N)cc2)cc1C | 3940 | 0.327 µM | 196 µM | 0.05 µM | – | – | – | – | –
CCOC(=O)c1cnc(NC2CCN(Cc3ccc(OC)cc3)CC2)nc1Oc1c(C)cc(-c2ccc(C#N)cc2)cc1C | 3740 | 0.622 µM | 125 µM | 0.033 µM | – | – | – | – | –
